Results as given in patent publication US4778912A, “Phospholipid derivatives” (priority 1985, dated 1988).
Values after ≈ are worked out from the molar mass of the structure shown. “Also recorded” adds a separate entry of the source. Like-named read-outs stand apart in the source and are kept apart here.

Assays:
platelet [1] = settings: cited from earlier work; for platelet activating / platelet aggregation action (in words): background
[2] = background, cited from earlier work
mouse = settings: iv administration; cited from earlier work
[3] = test system: PAF-induced platelet aggregation; experiment: Inhibition action against PAF in platelet aggregation (Washed PRP); format: cell-based, male rabbit; settings: Oryctolagus cuniculus
Description: Blood was collected from a male rabbit, using a syringe containing 3.15% of citric acid (at a ratio of 1 part to 9 parts of blood) as an anticoagulant and centrifuged at 1,000 r.p.m. at room temperature for 10 minutes to obtain platelet rich plasma (PRP). This PRP was further centrifuged at 1,400 r.p.m. for 15 minutes to obtain platelet pellet, which was then suspended in Ca^++ -free Tyrode (containing 0.25% of gelatin) to prepare Washed PRP. 250 μl of the Washed PRP was stirred at 37° C. for 2 minutes, and admixed with 25 μl of 0.2-0.5 mM Ca^++ solution, followed by stirring for another 30 seconds. Then, a test compound was added to the mixture to a concentration of 3×10^-5 M and after further stirring for 2 minutes, 3×10^-7 M of PAF was added to the mixture. Platelet aggregation was measured by using a platelet aggregometer (manufactured by Rika Denki Co. in Japan). The activity of the test compound was determined from an inhibition ratio for maximum transmission (i.e. maximum aggregation ratio) by PAF in the control PRP.
Inhibition activity against PAF in platelet aggregation was assayed under the same conditions as Test Example 5.

tumor = settings: background; cited from earlier work
platelet [4] = experiment: Effect on platelet: platelet aggregation (PAF activity) in platelet rich plasma; format: cell-based, male rabbit; settings: Oryctolagus cuniculus, Table 5, rabbit PRP, 400,000 cells/1 μl, read-out: PAF activity EC50 (drug concentration causing 50% platelet aggregation)
Description: This PRP was further centrifuged at 3,000 r.p.m. for 15 minutes to obtain platelet poor plasma (PPP). By using this PPP, the PRP was diluted and so adjusted as to have a constant platelet concentration (400,000 cells/1 μl). […] Platelet aggregation was measured by using a platelet aggregometer (manufactured by Rika Denki Co. in Japan).

MM46 cells = experiment: Antitumor action in C3H/He mice inoculated intraperitoneally with MM46 cells (life-span prolongation, 60-day survivors); format: in vivo; settings: for responders at 0.25 mg: 1440 h, read-out: 60th day: No. of survived mice/No. of tested mice (converted); for response vs control in vivo at 0.25 mg: read-out: Life-span prolongation ratio (T/C %)
Description: (i) C3H/He mice (a group consisting of five mice) were inoculated intraperitoneally with 1×10^4 MM46 cells per mouse, and each mouse was intraperitoneally given 0.25 mg of drug for consecutive 4 days, starting from the second day after the inoculation.
(ii) In the above test, each mouse was inoculated intraperitoneally with 1×10^5 MM46 cells and 0.25 mg of drug was given intraperitoneally to each mouse for consecutive 4 days, starting from the second day after the inoculation.
The assay was carried out under the same conditions as Test Example 2-i.

Sarcoma 180 cells = experiment: Antitumor action in ICR mice inoculated intraperitoneally with Sarcoma 180 cells (life-span prolongation, 60-day survivors); format: in vivo; settings: for responders at 0.33 mg: read-out: 60th day: No. of survived mice/No. of tested mice (converted); for response vs control in vivo at 0.33 mg: read-out: Life-span prolongation ratio (T/C %)
Description: The assay was carried out under the same conditions as Test Example 1-i.

[5] = test system: human myelogenous leukemia cells HL-60; experiment: Multiplication-inhibiting effect against human myelogenous leukemia cells HL-60; format: cell-based; settings: Table 4, read-out: Multiplication inhibition against HL-60 (IC50)
Description: Shown in Table 4 is the multiplication-inhibiting effect (IC50) of the compound of the present invention against human myelogenous leukemia cells HL-60. The assay was conducted according to the method of R. Gallo et al.: Blood, Vol 54, 713 (1979).

[6] = Table 10, same conditions as Test Example 5, read-out: Inhibition ratio
[7] = Table 2, 1×10^4 MM46 cells, 0.25 mg/mouse ip, 4 days
[8] = Mus musculus, ip, Table 2, 1×10^4 MM46 cells ip, 0.25 mg/mouse ip for consecutive 4 days from second day, only mice surviving less than 60 days
[9] = Sarcoma-180, 1440 h, Table 1, 0.33 mg/mouse ip, three times
[10] = Table 1, 1×10^5 Sarcoma 180 cells ip, 0.33 mg/mouse ip, three times (1 hour, 1 day, 2 days after inoculation), only mice surviving less than 60 days
[11] = Mus musculus, ip, Table 8, same conditions as Test Example 2-i
[12] = Mus musculus, Sarcoma-180, ip, 1440 h, Table 7, same conditions as Test Example 1-i
[13] = Mus musculus, Sarcoma-180, ip, Table 7, same conditions as Test Example 1-i
[14] = Table 6, test compound 3×10^-5 M, PAF 3×10^-7 M, read-out: Inhibition ratio

CCCCCCCCCCCCCCCCCCOCC(COP(=O)([O-])OCC[N+](C)(C)C)OC(C)=O (stereo not drawn) [Compound (II)]
platelet activating / platelet aggregation action (in words) (platelet [1]): strong platelet aggregation action
side effects and toxicity (in words) ([2]; listed as PAF): neutrophil-activating, tissue-impairing, vessel-permeability enhancing, blood-pressure lowering, heart function inhibiting, bronchoconstrictor and other actions; also recorded: toxicity for warm-blooded animals is very high
fatal dose for a mouse (mouse): about 50 mg/kg

CCCCCCCCCCCCCCCCCCOCC(COP(=O)([O-])OCCCCCCCC[N+](C)(C)C)OC(=O)CC(C)=O (stereo not drawn) [Example 29, 2-(Acetoacetoxy)-3-(octadecyloxy)propyl 8-trimethylammoniooctyl phosphate]
inhibition at 30 µM [3, 6]: 96%

CCCCCCCCCCCCCCCCCCOCC(COP(=O)([O-])OCC[N+](C)(C)C)OC(=O)N(C)C (stereo not drawn) [Compound (V)]
platelet activating / platelet aggregation action (in words) (platelet [1]): remarkably strong platelet activating activity

CCCCCCCCCCCCCCCCCCOCC(COP(=O)([O-])OCC[N+](C)(C)C)OC (stereo not drawn) [Compound (III), reference compound]
antitumor action (in words) (tumor): exhibit an antitumor action
platelet activating / platelet aggregation action (in words) (platelet [1]): possess a platelet activating action
side effects and toxicity (in words) [2]: both blood-pressure lowering and topically irritating actions are observed; also recorded: high degree of its toxicity
EC50 (platelet [4]): 30 µM
responders at 0.25 mg (MM46 cells; [7]): 0%
response vs control in vivo at 0.25 mg (MM46 cells; [8]): 155%
life-span prolongation ratio compared with the control group (in words) (Sarcoma 180 cells; 1 mg/mouse, for its toxicity): smaller life-span prolongation ratio than the control group
responders at 0.33 mg (Sarcoma 180 cells; [9]): 0%
response vs control in vivo at 0.33 mg (Sarcoma 180 cells; [10]): 162%

CCCCCCCCCCCCCCCCCCOCC(COP(=O)([O-])OCCCCCCCCCC[N+](C)(C)C)OC (stereo not drawn) [Example 10, 2-Methoxy-3-octadecyloxypropyl 10-trimethylammoniodecyl phosphate]
inhibition at 30 µM [3, 6]: 53%
responders at 0.25 mg (MM46 cells; [11]): 40%
response vs control in vivo at 0.25 mg (MM46 cells; [11]): 249%
responders at 0.33 mg (Sarcoma 180 cells; [12]): 0%
response vs control in vivo at 0.33 mg (Sarcoma 180 cells; [13]): 212%

CCCCCCCCCCCCCCCCCCOCC(COP(=O)([O-])OCCC[N+](C)(C)C)OC(=O)CC(C)=O (stereo not drawn) [Reference compound 2, reference compound]
inhibition at 30 µM [3, 14]: 0%
IC50 [5]: 11 µg/mL (≈ 18.1 µM)

CC(=O)CC(=O)OC(COCCCCCCCCCCCCCCC(C)C)COP(=O)([O-])OCCCCCCCCCC[N+](C)(C)C (stereo not drawn) [Example 43, 2-(Acetoacetyloxy)-3-(15-methylhexadecyloxy)propyl 10-trimethylammoniodecylphosphate]
inhibition at 30 µM [3, 6]: 100%
responders at 0.25 mg (MM46 cells; [11]): 0%
response vs control in vivo at 0.25 mg (MM46 cells; [11]): 232%
responders at 0.33 mg (Sarcoma 180 cells; [12]): 40%
response vs control in vivo at 0.33 mg (Sarcoma 180 cells; [13]): 128%

COC(COCCCCCCCCCCCCCCC(C)C)COP(=O)([O-])OCCCCCCCCCC[N+](C)(C)C (stereo not drawn) [Example 39, 2-Methoxy-3-(15-methylhexadecyloxy)propyl 10-trimethylammoniodecyl phosphate]
inhibition at 30 µM [3, 6]: 69%
responders at 0.33 mg (Sarcoma 180 cells; [12]): 0%
response vs control in vivo at 0.33 mg (Sarcoma 180 cells; [13]): 265%

CCCCCCCCCCCCCCCCCCOCC(COP(=O)([O-])OCC[N+](C)(C)C)OC(=O)CC(C)=O (stereo not drawn) [Reference compound 1, reference compound]
inhibition at 30 µM [3, 14]: 0%
IC50 [5]: 6.6 µg/mL (≈ 11.1 µM)

CCCCCCCCCCCCCCCCCCOCC(COP(=O)([O-])OCCCCCCCCCC[N+](C)(C)C)OC(=O)NC (stereo not drawn) [Example 8, 2-Methylcarbamoyloxy-3-octadecyloxypropyl 10-trimethylammoniodecyl phosphate]
inhibition at 30 µM [3, 6]: 100%

CCCCCCCCCCCCCCCCCCOCC(COP(=O)([O-])OCCCCCCCCCC[N+](C)(C)C)OCC(=O)O (stereo not drawn) [Example 46, 2-(Carboxymethyloxy)-3-(octadecyloxy)propyl 10-trimethylammoniodecyl phosphate]
responders at 0.25 mg (MM46 cells; [11]): 20%
response vs control in vivo at 0.25 mg (MM46 cells; [11]): 287%
responders at 0.33 mg (Sarcoma 180 cells; [12]): 0%
response vs control in vivo at 0.33 mg (Sarcoma 180 cells; [13]): 335%

CCCCCCCCCCCCCCCCCCOCC(COP(=O)([O-])OCC[N+](C)(C)C)OC(=O)CCC (stereo not drawn) [Compound (IV), reference compound]
platelet activating action relative to that of PAF (II) (platelet [1]; Thrombosis Research, 30, 143 (1983)): about 1/10
responders at 0.33 mg (Sarcoma 180 cells; [9]): 0%
response vs control in vivo at 0.33 mg (Sarcoma 180 cells; [10]): 109%

COC(COCCCCCCCCCCCCC1CCCCC1)COP(=O)([O-])OCCCCCCCCCC[N+](C)(C)C (stereo not drawn) [Example 33, 3-(12-Cyclohexyldodecyloxy)-2-methoxypropyl 10-trimethylammoniodecyl phosphate]
inhibition at 30 µM [3, 6]: 100%
responders at 0.33 mg (Sarcoma 180 cells; [12]): 0%
response vs control in vivo at 0.33 mg (Sarcoma 180 cells; [13]): 266%

CCCCCCCCCCCCCCCCCCOCC(COP(=O)([O-])OCCCCCCCC[N+](C)(C)C)OC(=O)NC (stereo not drawn) [Example 44, 2-Methylcarbamoyloxy-3-octadecyloxypropyl 8-trimethylammoniooctyl phosphate]
inhibition at 30 µM [3, 6]: 100%

CCCCCCCCCCCCCCCCCCC(=O)COCC(COP(=O)([O-])OCCCCCCCCCC[N+](C)(C)C)OC (stereo not drawn) [Example 6, 2-Methoxy-3-(2-oxoeicocyloxy)propyl 10-trimethylammoniodecyl phosphate]
responders at 0.25 mg (MM46 cells; [11]): 80%
response vs control in vivo at 0.25 mg (MM46 cells; [11]): 145%
responders at 0.33 mg (Sarcoma 180 cells; [12]): 0%
response vs control in vivo at 0.33 mg (Sarcoma 180 cells; [13]): 242%

CCCCCCCCCCCCCCCCCCOCC(COP(=O)([O-])OCCCCCCCCCC[N+](C)(C)C)OC(=O)CC(C)=O (stereo not drawn) [Example 3, 2-(Acetoacetyloxy)-3-(octadecyloxy)propyl 10-trimethylammoniodecyl phosphate]
inhibition at 30 µM [3, 14]: 72%
IC50 [5]: 1.5 µg/mL
responders at 0.25 mg (MM46 cells; [7]): 80%
response vs control in vivo at 0.25 mg (MM46 cells; [8]): 132%
response vs control in vivo at 0.25 mg (MM46 cells; Mus musculus, ip, Table 3, 1×10^5 MM46 cells ip, 0.25 mg/mouse ip for consecutive 4 days, only mice surviving less than 60 days): 125%
60th day: No. of survived mice/No. of treated mice (MM46 cells; Table 3, 1×10^5 MM46 cells, 0.25 mg/mouse ip, 4 days): 4/5
life-span prolongation ratio (T/C %) (Sarcoma 180 cells; 1 mg/mouse, otherwise as Test Example 1-i): 369%
number of survived mice on the 60th day (Sarcoma 180 cells; 1 mg/mouse, group of 5 mice): 2 mice
responders at 0.33 mg (Sarcoma 180 cells; [9]): 40%
response vs control in vivo at 0.33 mg (Sarcoma 180 cells; [10]): 326%

CCCCCCCCCCCCCCCCCCNC(=O)OCC(COP(=O)([O-])OCCCCCCCCCC[N+](C)(C)C)OC (stereo not drawn) [Example 11, 3-Octadecylcarbamoyloxy-2-methoxypropyl 10-trimethylammoniodecyl phosphate]
responders at 0.25 mg (MM46 cells; [11]): 40%
response vs control in vivo at 0.25 mg (MM46 cells; [11]): 186%
responders at 0.33 mg (Sarcoma 180 cells; [12]): 0%
response vs control in vivo at 0.33 mg (Sarcoma 180 cells; [13]): 253%

CCCCCCCCCCCCCCCCCCNC(=O)OCC(COP(=O)([O-])OCC[N+](C)(C)C)OC (stereo not drawn) [VI, reference compound]
antitumor action (in words) (tumor): not sufficient
responders at 0.33 mg (Sarcoma 180 cells; [9]): 0%
response vs control in vivo at 0.33 mg (Sarcoma 180 cells; [10]): 202%

CCCCCCCCCCCCCCCCCCOCC(COP(=O)([O-])OCCCCCCCCCC[N+](C)(C)C)OCC(C)=O (stereo not drawn) [Example 18, 3-(Octadecyloxy)-2-(2-oxopropyloxy)propyl 10-trimethylammoniodecyl phosphate]
inhibition at 30 µM [3, 14]: 100%
EC50 (platelet [4]): > 100 µM

CCCCCCCCCCCCCCCCCCOCC(COP(=O)([O-])OCCCCCCCCCC[N+](C)(C)C)OC(=S)NC (stereo not drawn) [Example 9, 2-Methylthiocarbamoyloxy-3-octadecyloxypropyl 10-trimethylammoniodecyl phosphate]
inhibition at 30 µM [3, 6]: 55%
responders at 0.25 mg (MM46 cells; [11]): 40%
response vs control in vivo at 0.25 mg (MM46 cells; [11]): 170%
